Measurements reported in patent publication US5275708A, “Cetyltrimethylammonium bromide gel electrophoresis” (Thomas Jefferson University, priority 1992, dated 1994).

Columns and labels:
[1] = system: enzyme activities of various proteins; experiment: Enzyme activities of detergent-treated samples after heating; assay type: biochemical; conditions: detergent treated samples heated to 100° C. in the presence of β-mercaptoethanol
Description: Native protein activity was retained after solubilization in CTAB. Enzyme activities of various proteins in CTAB with their activities when solubilized in SDS, or Tx-100 were compared. […] The relative effect of detergent solubilization on native activity varied from protein to protein and, therefore, must be determined empirically.

Alkaline phosphatase = Alkaline phosphatase activity after detergent solubilization; assay type: biochemical; conditions: 0.5% detergent; compared to SDS; relative to Tx-100 (100%)
Protocol: (§1) FIG. 4 is a graphical depiction of the effect of detergent solubilization on enzyme activities. Enzyme activities were determined in the presence of 0.5% Tx-100, SDS, or CTAB as described in the Examples. The activities were expressed relative to that in Tx-100 solubilized samples (100%). […] Alkaline phosphatase and horseradish peroxidase were purchased from Sigma. Ca^2+ -ATPase activity was measured in microsomes prepared from day-17 chick chorioallantoic membrane, Oakley et al., Anal. Biochem., 105:361-363 (1980). NAD dependent isocitrate dehydrogenase (ICD) and lactate dehydrogenase (LDH) activities were measured in detergent extracts of JEG-3 human choriocarcinoma cells
(§2) Ca^2+ -ATPase activity was assayed by the method of Tuan and Knowles, J. Biol. Chem., 259:2754-2763 (1984), without further modification. Alkaline phosphatase, lactate dehydrogenase, and isocitrate dehydrogenase activities were measured using protocols supplied with their respective diagnostic kits.

horseradish peroxidase = experiment: Horseradish peroxidase activity after detergent solubilization; assay type: biochemical; conditions: 0.5% detergent; compared to SDS; relative to Tx-100 (100%)
Protocol: Spectrophotometric Assays. Peroxidase activity was assayed at room temperature using a solution of 0.5 mg/ml diaminobenzidine in 10 mM sodium phosphate buffered 0.9% saline (pH 7.2), containing 0.1% hydrogen peroxide. Reactions were allowed to proceed for 5 minutes, and then were stopped by the addition of 10 mM sodium sulfide to 100 μM. Absorbance at 480 nm was used to determine the degree of product formation.

[2] = system: NAD dependent isocitrate dehydrogenase (ICD); experiment: NAD dependent isocitrate dehydrogenase activity in detergent extracts; assay type: biochemical, human; conditions: 0.5% detergent; JEG-3 cell extracts; compared to SDS; relative to Tx-100 (100%)
Protocol: as §1, §2

[3] = system: lactate dehydrogenase (LDH); experiment: Lactate dehydrogenase activity in detergent extracts; assay type: biochemical, human; conditions: 0.5% detergent; JEG-3 cell extracts; relative to Tx-100 (100%)
Protocol: as §1, §2

Ca2+-ATPase = Ca2+-ATPase activity in detergent-solubilized chorioallantoic membrane microsomes; assay type: biochemical; conditions: 0.5% detergent; day-17 chick CAM microsomes; relative to Tx-100 (100%)
Protocol: as §1, §2

[4] = α-NH2 group; cited from earlier work

Row | SMILES | Enzyme activity after heating [1] | Enzyme activity (AP) in detergent (Alkaline phosphatase) | Enzyme activity (HRP) in detergent (horseradish peroxidase) | Enzyme activity (ICD) in detergent [2] | Enzyme activity (LDH) in detergent [3] | Enzyme activity (Ca2+-ATPase) in detergent (Ca2+-ATPase) | pKa [4]
1 | CCCCCCCCCCCCCCCC[N+](C)(C)C.[Br-] [CTAB, Cetyltrimethylammonium bromide] | lost all activity | relatively high levels of enzyme activity | relatively high levels of enzyme activity | relatively high levels of enzyme activity | lack of activity | significantly affected | 
2 | NCCCC[C@H](N)C(=O)O [lysine] |  |  |  |  |  |  | ≈ 9.06
3 | CCCCCCCCCCCCOS(=O)(=O)[O-].[Na+] [SDS, sodium dodecylsulfate] | lost all activity |  |  |  |  |  | 
